Measured values: PubChem BioAssay AID248 (DTP/NCI, 2004)
Several values for one entry are separate records, joined by “and”; a condition that tells them apart may be missing. Equal entries are not always repeated. Inconclusive results and toxic doses are left out. Rule as the data show it: active = T/C of 150% or more; inactive = T/C below 125%.

Tested on: L1210 leukemia ip in BDF1 mice, survival T/C
Assay: NCI In Vivo Anticancer Drug Screen. Data for tumor model L1210 Leukemia (intraperitoneal) in B6D2F1 (BDF1) mice
Conditions: endpoint: mean survival time, higher = longer survival
Method in brief: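 Each compound was tested against a transplantable tumor grown in mice. The endpoint was survival, with treated animals benchmarked against vehicle controls as a simple ratio.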

[1] = dose: 100.0 mg/kg/injection, schedule: Q01DX001 (ip), vehicle: saline
[2] = dose: 200.0 mg/kg/injection, schedule: Q01DX001 (ip), vehicle: saline
[3] = dose: 400.0 mg/kg/injection, schedule: Q01DX001 (ip), vehicle: saline
[4] = dose: 100.0 mg/kg/injection, schedule: Q01DX009 (ip), vehicle: Klucel (hydroxypropylcellulose) (HPC)
[5] = dose: 200.0 mg/kg/injection, schedule: Q01DX009 (ip), vehicle: Klucel (hydroxypropylcellulose) (HPC)
[6] = dose: 400.0 mg/kg/injection, schedule: Q01DX009 (ip), vehicle: Klucel (hydroxypropylcellulose) (HPC)
[7] = dose: 100.0 mg/kg/injection, schedule: Q04DX003 (ip), vehicle: saline with Tween-80
[8] = dose: 200.0 mg/kg/injection, schedule: Q04DX003 (ip), vehicle: saline with Tween-80
[9] = dose: 400.0 mg/kg/injection, schedule: Q04DX003 (ip), vehicle: saline with Tween-80
[10] = dose: 100.0 mg/kg/injection, schedule: Q01DX001 (ip), vehicle: carboxymethylcellulose (CMC)
[11] = dose: 200.0 mg/kg/injection, schedule: Q01DX001 (ip), vehicle: carboxymethylcellulose (CMC)
[12] = dose: 400.0 mg/kg/injection, schedule: Q01DX001 (ip), vehicle: carboxymethylcellulose (CMC)
[13] = dose: 50.0 mg/kg/injection, schedule: Q01DX009 (ip), vehicle: saline with Tween-80
[14] = dose: 100.0 mg/kg/injection, schedule: Q01DX009 (ip), vehicle: saline with Tween-80

Measured: T/C

CC1(C)N=C(N)N=C(N)N1c1cccc(OCCCOc2cccc([N+](=O)[O-])c2)c1
inactive: dose: 5.0 mg/kg/injection, schedule: Q01DX001 (ip), vehicle: saline 100 % of control | dose: 10.0 mg/kg/injection, schedule: Q01DX001 (ip), vehicle: saline 97 % of control | dose: 20.0 mg/kg/injection, schedule: Q01DX001 (ip), vehicle: saline 97 % of control | dose: 40.0 mg/kg/injection, schedule: Q01DX001 (ip), vehicle: saline 100 % of control | dose: 80.0 mg/kg/injection, schedule: Q01DX001 (ip), vehicle: saline 95 % of control

CCCc1cc(C(C)=O)c[n+](C2OC(COC(C)=O)C(OC(C)=O)C(OC(C)=O)C2OC(C)=O)c1 (stereo not given)
inactive: dose: 50.0 mg/kg/injection, schedule: Q01DX005 (ip), vehicle: water 97 % of control | dose: 100.0 mg/kg/injection, schedule: Q01DX005 (ip), vehicle: water 97 % of control

O=CC(O)C(O)C(O)C(O)COP(=O)(O)O (stereo not given)
inactive: dose: 25.0 mg/kg/injection, schedule: Q01DX009 (ip), vehicle: saline 102 % of control | dose: 50.0 mg/kg/injection, schedule: Q01DX009 (ip), vehicle: saline 93 % of control | dose: 100.0 mg/kg/injection, schedule: Q01DX009 (ip), vehicle: saline 88 % of control

N=C1C(=O)c2ccccc2-c2ccccc21
inactive: dose: 100.0 mg/kg/injection, schedule: Q01DX001 (ip), vehicle: Klucel (hydroxypropylcellulose) (HPC) 97 % of control | dose: 200.0 mg/kg/injection, schedule: Q01DX001 (ip), vehicle: Klucel (hydroxypropylcellulose) (HPC) 98 % of control | dose: 400.0 mg/kg/injection, schedule: Q01DX001 (ip), vehicle: Klucel (hydroxypropylcellulose) (HPC) 98 % of control

COCCN1CCC(CO)C1 (stereo not given)
inactive: [1] 93 % of control | [2] 98 % of control | [3] 93 % of control

CCN(C(=S)Nc1cccc2ccccc12)c1ccccc1
inactive: [4] 100 % of control | [5] 96 % of control | [6] 92 % of control

O=C(Nc1ccc([N+](=O)[O-])cc1[N+](=O)[O-])C(Cl)(Cl)Cl
inactive: [7] 94 % of control | [8] 96 % of control | [9] 105 % of control

O=c1c(N(CCO)CCO)cn(C(c2ccccc2)(c2ccccc2)c2ccccc2)c(=O)n1C(c1ccccc1)(c1ccccc1)c1ccccc1
inactive: dose: 50.0 mg/kg/injection, schedule: Q01DX001 (ip), vehicle: carboxymethylcellulose (CMC) 104 % of control | [10] 96 % of control | [11] 100 % of control | [12] 96 % of control

O=C(O)C(Oc1ccccc1)Oc1ccccc1
inactive: dose: 50.0 mg/kg/injection, schedule: Q01DX001 (ip), vehicle: alkali diluted with saline 100 % of control | dose: 100.0 mg/kg/injection, schedule: Q01DX001 (ip), vehicle: alkali diluted with saline 96 % of control | dose: 200.0 mg/kg/injection, schedule: Q01DX001 (ip), vehicle: alkali diluted with saline 100 % of control | dose: 400.0 mg/kg/injection, schedule: Q01DX001 (ip), vehicle: alkali diluted with saline 96 % of control

CC(=O)c1ccc(OC(=O)C(C)(C)C)cc1
inactive: [1] 97 % of control | [2] 103 % of control | [3] 98 % of control

CC(C)(C)OC(=O)c1c2ccccc2cc2ccccc12
inactive: dose: 100.0 mg/kg/injection, schedule: Q04DX002 (ip), vehicle: gum acacia 99 % of control | dose: 200.0 mg/kg/injection, schedule: Q04DX002 (ip), vehicle: gum acacia 101 % of control | dose: 400.0 mg/kg/injection, schedule: Q04DX002 (ip), vehicle: gum acacia 105 % of control

CC(C)c1ccc(N2CSC(=S)N(c3ccc(C(C)C)cc3)C2)cc1
inactive: dose: 100.0 mg/kg/injection, schedule: Q04DX002 (sc), vehicle: olive oil, sesame oil, peanut oil 104 % of control | dose: 200.0 mg/kg/injection, schedule: Q04DX002 (sc), vehicle: olive oil, sesame oil, peanut oil 107 % of control | dose: 400.0 mg/kg/injection, schedule: Q04DX002 (sc), vehicle: olive oil, sesame oil, peanut oil 101 % of control

CC(C)(C)NC(=O)C1C2CC3OC(=O)C1C3C2 (stereo not given)
inactive: [7] 98 % of control | [8] 101 % of control and 90 % of control | [9] 101 % of control and 98 % of control

CCCCCCCCCCCCCCCCCCCCCCOC(=O)CCC(=O)OCCCCCCCCCCCCCCCCCCCCCC
inactive: dose: 100.0 mg/kg/injection, schedule: Q01DX009 (ip), vehicle: gum acacia 86 % of control | dose: 100.0 mg/kg/injection, schedule: Q04DX003 (ip), vehicle: gum acacia 95 % of control | dose: 200.0 mg/kg/injection, schedule: Q01DX009 (ip), vehicle: gum acacia 86 % of control | dose: 200.0 mg/kg/injection, schedule: Q04DX003 (ip), vehicle: gum acacia 92 % of control | dose: 400.0 mg/kg/injection, schedule: Q04DX003 (ip), vehicle: gum acacia 92 % of control

NC(CC(=O)NCCc1ccccc1)C(=O)NCCc1ccccc1 (stereo not given)
inactive: dose: 75.0 mg/kg/injection, schedule: Q01DX001 (ip), vehicle: other 102 % of control | dose: 150.0 mg/kg/injection, schedule: Q01DX001 (ip), vehicle: other 97 % of control | dose: 300.0 mg/kg/injection, schedule: Q01DX001 (ip), vehicle: other 97 % of control

N#Cc1oc2ccccc2c1O
inactive: dose: 25.0 mg/kg/injection, schedule: Q01DX009 (ip), vehicle: saline with Tween-80 92 % of control | [13] 96 % of control | [14] 92 % of control | [7] 103 % of control

ClCC[N+]12CC[N+](CCCl)(CC1)C2
inactive: dose: 75.0 mg/kg/injection, schedule: Q01DX001 (ip), vehicle: saline 105 % of control | dose: 150.0 mg/kg/injection, schedule: Q01DX001 (ip), vehicle: saline 120 % of control

O=C1CCCNc2c(Br)cc(Br)cc21
inactive: [10] 91 % of control | [11] 94 % of control | [12] 100 % of control

CN(C)c1c(-c2ccccc2)cc(-c2ccccc2)[nH]c1=O
inactive: [10] 95 % of control | [11] 95 % of control | [12] 88 % of control

CN(C)c1ccc(/C=C/c2nc3ccccc3o2)cc1
inactive: [4] 95 % of control | [5] 95 % of control | [6] 94 % of control

NC(=S)NNc1ccccn1
inactive: dose: 3.13 mg/kg/injection, schedule: Q01DX009 (ip), vehicle: saline 108 % of control | dose: 6.25 mg/kg/injection, schedule: Q01DX009 (ip), vehicle: saline 96 % of control | dose: 12.5 mg/kg/injection, schedule: Q01DX009 (ip), vehicle: saline 101 % of control | dose: 100.0 mg/kg/injection, schedule: Q04DX002 (ip), vehicle: saline 94 % of control

NC(=S)S/C=C/C(=O)O
inactive: [13] 96 % of control | [14] 93 % of control | [7] 110 % of control | dose: 200.0 mg/kg/injection, schedule: Q01DX009 (ip), vehicle: saline with Tween-80 86 % of control | [8] 100 % of control | [9] 97 % of control

CC12OC1C(=O)c1ccccc1C2=O (stereo not given)
inactive: dose: 5.0 mg/kg/injection, schedule: Q04DX003 (ip), vehicle: Klucel (hydroxypropylcellulose) (HPC) 103 % of control | dose: 10.0 mg/kg/injection, schedule: Q04DX003 (ip), vehicle: Klucel (hydroxypropylcellulose) (HPC) 97 % of control

COC1OC2COC(c3ccccc3)OC2C(OC(=O)c2ccccc2)C1OC(=S)SCc1ccccc1 (stereo not given)
inactive: dose: 12.5 mg/kg/injection, schedule: Q04DX002 (ip), vehicle: saline 107 % of control | dose: 25.0 mg/kg/injection, schedule: Q04DX002 (ip), vehicle: saline 104 % of control | dose: 50.0 mg/kg/injection, schedule: Q04DX002 (ip), vehicle: saline 104 % of control
